From patent publication US20060171935A1, “Protecting cell therapy for neurological disorders including Parkinson's disease” (priority 2005, published 2006)
Numbering of substitutions follows the chain as printed. In names and notes the source's numbering stands. Where two headings read alike, the source gives them in different places. d = 2'-deoxy (DNA); r = 2'-OH (RNA)

Key:
[1] = system: primary cortical cultures; experiment: Parkin siRNA in kainate-treated primary cortical cultures, Western blot; assay type: cell-based, mice; details: 25 nM siRNA
Procedure: (§1) Cerebellar granule neurons from P6 mice were purified and transfected essentially as described (Scheiffele et al., Neuroligin expressed in nonneuronal cells triggers presynaptic development in contacting axons. Cell, 101:657-69, 2000). Dissociated cortical neurons from E16.5 mice were prepared and cultured as described (Scheiffele et al., Neuroligin expressed in nonneuronal cells triggers presynaptic development in contacting axons. Cell, 101:657-69, 2000). Primary midbrain cultures were prepared from E13.5 mouse embryos, as described (Hynes et al., Induction of midbrain dopaminergic neurons by Sonic hedgehog. Neuron, 15:35-44, 1995). Cells were treated for 24 h with or without kainate (250 or 500 μM as indicated; Sigma) or MPP^+ (1 or 10 μM as indicated; Sigma), stained for 20 min with 0.5 μg/ml Hoechst 33342 (Sigma), and visualized by fluorescence microscopy. For granule cell assays, at least 100 cells in two 20× fields were scored in duplicate for GFP and/or Hoechst signal. For immunohistochemistry, cell cultures were washed twice with PBS, and fixed for 20 min with 4% (w/v) paraformaldehyde. Cells were blocked for 1 h, at room temperature, with 3% (v/v) goat serum in PBS, and then incubated overnight, at 4° C., with specific antibodies, as indicated. Cells were washed, incubated for 1 h at room temperature with appropriately-labeled secondary antibodies, and visualized by fluorescence microscopy. For midbrain culture experiments, DAT-specific immunoreactivity (pixels), and cytoplasmic parkin and cyclin E immunoreactivity (mean pixel density), were quantified in triplicate, across nine fields of view, at 20× using Image software (Scion).
SiRNAs were synthesized by Dharmacon Research, Inc., and duplexes were formed as per the manufacturer's instructions (parkin siRNA sequence: 5′ […] […]dTdT 3′; DAT siRNA sequence: 5′ […]dTdT 3′; SERT siRNA sequence: 5′[…]dTdT 3′). […]

[2] = system: primary culture midbrain dopamine neurons; experiment: Parkin siRNA in primary midbrain dopamine neuron cultures; assay type: cell-based, mice
Procedure: as §1
SiRNAs were synthesized by Dharmacon Research, Inc., and duplexes were formed as per the manufacturer's instructions (parkin siRNA sequence: 5′ […] […]dTdT 3′; DAT siRNA sequence: 5′ […]dTdT 3′; SERT siRNA sequence: 5′[…]dTdT 3′). Cortical cultures were transfected using Lipofectamine 2000 reagent (Life Technologies); primary midbrain cultures were transfected using Transmessenger (Qiagen), as described (Krichevsky and Kosik, RNAi functions in cultured mammalian neurons. Proc. Natl. Acad. Sci. USA, 99:11926-929, 2002).
Embryonic day 13.5 (E13.5) primary culture midbrain dopamine neurons, identified by immunohistochemical staining for the dopamine transporter (DAT) (Nirenberg et al., The dopamine transporter is localized to dendritic and axonal plasma membranes of nigrostriatal dopaminergic neurons. J. Neurosci., 16:436-47, 1996), were transfected with parkin siRNA (FIG. 7, panels F-J and P-T) or control siRNA (FIG. 7, panels A-E and K-O), and subsequently exposed to kainate, as above.

[3] = system: DJ-1 deficient ES cells; assay type: cell-based
Procedure: DJ-1 has been hypothesized to function in the cellular response to oxidative stress. To investigate the role of DJ-1 in the oxidative stress response in vivo, DJ-1-deficient homozygous mutant (‘knockout’) cells and DJ-1 heterozygote (‘control’) ES cell clones were analyzed for cell viability in the context of increasing concentrations of H2O2. Heterozygous cells were used as controls because the ‘knockout’ subclones were derived from these. Cell viability was initially determined by MTT assay in triplicate (Fezoui et al. 2000). […] The increase in AV-positive cells implicated an apoptotic mechanism of cell death (FIG. 14F).
(§2) In Vivo Assays. ES cells plated in 96-well format (2.3×10^4 cells/well) were treated for 15 hours with H2O2 in ES media deficient in β-mercaptoethanol (Abeliovich et al. 2000). Cell viability (as a percent of untreated control) was determined by MTT assay in triplicate (Fezoui et al. 2000). Annexin V/Propidium Iodide (Molecular probes) staining was performed per the manufacturer's instructions. For dihydrorhodamine-123 staining (DHR, Molecular probes) (Walrand et al. 2003), cells were preincubated for 30 min with DHR (5 μM), washed with PBS, then treated with H2O2 in ES media deficient in β-mercaptoethanol for 15 min at 37° C. The FACS analysis was performed using a FACSTAR sorter (Becton Dickinson). Dopamine uptake assay was performed essentially as described (Farrer et al. 1998). Reported values represent specific uptake from which non-specific uptake, determined in the presence of mazindol, was subtracted, and normalized for protein content (BCA kit, Pierce).

[4] = biological target: T1, citrate synthase (CS) (Sus scrofa, UniProt P00889); experiment: Suppression of heat-induced aggregation of citrate synthase (chaperone assay); assay type: biochemical; details: 0.8 μM CS, 43° C.
T1 construct: purchased Sigma
T1 sequence (P00889 28-464): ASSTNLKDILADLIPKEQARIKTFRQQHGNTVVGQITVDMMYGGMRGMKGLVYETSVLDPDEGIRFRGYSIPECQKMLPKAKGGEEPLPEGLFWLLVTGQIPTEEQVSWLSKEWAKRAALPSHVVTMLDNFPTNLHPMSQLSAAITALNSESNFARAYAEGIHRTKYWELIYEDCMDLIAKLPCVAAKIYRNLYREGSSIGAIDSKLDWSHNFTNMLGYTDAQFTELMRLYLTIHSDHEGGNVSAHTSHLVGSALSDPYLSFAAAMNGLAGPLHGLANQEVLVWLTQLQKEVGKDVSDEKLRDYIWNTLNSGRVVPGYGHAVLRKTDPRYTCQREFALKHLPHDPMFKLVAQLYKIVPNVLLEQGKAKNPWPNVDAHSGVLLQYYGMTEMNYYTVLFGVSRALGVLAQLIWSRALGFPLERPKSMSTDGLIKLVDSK
Procedure: To test the redox regulation of DJ-1, the inventors assayed chaperone activity in the CS aggregation assay in the presence or absence of the reducing agent DTT. […] (FIG. 22D). […] To further test whether redox regulation might govern DJ-1 chaperone activity, reactivation studies using reduced DJ-1 were performed. DTT-reduced DJ-1 was incubated with H2O2 (10 mM in aggregation buffer for 10 min at 4° C. followed by dialysis against aggregation buffer for 2 h), and subsequently chaperone activity was measured in the CS thermal aggregation assay. […] This was not an indirect effect of residual H2O2 on CS aggregation, as H2O2 treatment of CS increased aggregation (unpublished data).
CS aggregation was performed in 40 mM HEPES (pH 7.8), 20 mM potassium hydroxinde, 50 mM potassium chloride, and 10 mM ammonium sulfate, and monitored in a thermostat-controlled fluorescence spectrophotometer with excitation and emission wavelengths at 500 nm and slit widths at 2.5 nm. Insulin aggregation was performed as described (Giasson et al. 2000). CS, insulin, RNase A, and GST were obtained from Sigma; human Hsp27 was obtained from Stressgen.

[5] = system: DJ-1-deficient ES cells; experiment: Rescue of DJ-1-deficient ES cells from H2O2, MTT viability; assay type: cell-based, murine; details: transient transfection, 10 μM H2O2 for 15 h
Procedure: (A) DJ-1 cysteine-to-alanine mutants C106A, C53A, and a triple mutant that harbors mutations at all three cysteines in DJ-1 (C106A/C53A/C46A), as well as L166P, were tested for in vitro chaperone activity by CS aggregation suppression assay. (B) Self-association of DJ-1 cysteine mutants. Murine neuroblastoma CAD cells were transiently cotransfected with Flag-tagged human DJ-1 vectors (either WT or mutant) along with WT YFP-tagged human DJ-1. Lysates were immunoprecipitated with anti-Flag antibodies and probed by Western blotting with an antibody specific for human DJ-1. […] Lysates represent 20% of the input for the immunoprecipitate; Flag-DJ-1 migrates at 22 kDa, and YFP-DJ-1 migrates at 50 kDa. (C) DJ-1-deficient ES cells were transiently transfected with vector alone, WT DJ-1, or DJ-1 cysteine mutants, and exposed to 10 μM H2O2 for 15 h followed by MTT assay. The viability of the cells in the absence of drug treatment was not altered by the expression of WT or mutant DJ-1). Data are shown as the mean±SEM and were analyzed by ANOVA with Fisher's post-hoc test. *p<0.05.
To confirm that altered sensitivity to oxidative stress is a consequence of the loss of DJ-1, ‘rescue’ experiments by overexpressing wild-type or mutant human DJ-1 in ‘knockout’ ES cells were performed. Plasmids encoding human wild-type DJ-1, PD-associated L166P mutant DJ-1, or vector alone, were transiently transfected into DJ-1 deficient clones, and these were subsequently assayed for sensitivity to H2O2 using the MTT viability assay.
as §2

For “5′ UUCCAAACCGG AUGAGUGGdTdT 3′ (UUCCAAACCGGAUGAGUGGTT; siRNA; sugars from the 5' end r19 d2, backbone not given here) [parkin siRNA, parkin-specific short interfering RNA synthesized by Dharmacon]”, the “cleaved-PARP (apoptosis marker)” value [1] was “accumulation of cleaved poly (ADP-ribose) polymerase”, the “cyclin E accumulation” value [1] was “increased accumulation of cyclin E” and the parkin protein expression [1] was “significantly reduced parkin expression”. The “dopamine neuron sensitivity to MPP+” value ([2]; MPP+ 10 μM) was “failed to alter dopamine neuron sensitivity”, the “cyclin E or DAT immunoreactivity” value ([2]; absence of kainate) was “failed to alter cyclin E or DAT immunoreactivity” and the “sensitization of DAT-negative neurons to kainate relative to DAT-positive population” value ([2]; cyclin E induction and apoptosis) was “significantly lesser extent”. The “apoptosis of dopamine neurons” value ([2]; kainate) was “increased apoptosis”, the “cyclin E accumulation in dopamine neurons” value ([2]; kainate) was “increased accumulation of cyclin E” and the DAT immunoreactivity ([2]; presence of kainate) was “decreased DAT immunoreactivity”.

For `OO` [H2O2], the “sensitivity of DJ-1 deficient cells to toxin relative to heterozygous cells” value ([3]; 15 h exposure, MTT) was “significantly greater toxicity”.

`[Cl][Cu][Cl]` [copper] was tested, and the “sensitivity of DJ-1 deficient cells to toxin relative to heterozygous cells” value ([3]; 15 h exposure, MTT) was “sensitized”.

For `C[C@@H]1C[C@@H]([C@H](O)CC2CC(=O)NC(=O)C2)C(=O)[C@@H](C)C1` [cycloheximide], the “sensitivity of DJ-1 deficient cells to toxin relative to heterozygous cells” value ([3]; 15 h exposure, MTT) was “did not observe altered sensitivity”.

In the case of `CC(=O)N[C@@H](CSC(=O)[C@]1([C@@H](O)C(C)C)NC(=O)[C@H](C)[C@@H]1O)C(=O)O` [lactacystin], the “sensitivity of DJ-1 deficient cells to toxin relative to heterozygous cells” value [3] is reported as “sensitized”.

With `CN[C@@H]1C[C@H]2O[C@@](C)([C@@H]1OC)n1c3ccccc3c3c4c(c5c6ccccc6n2c5c31)C(=O)NC4` [staurosporine] the “sensitivity of DJ-1 deficient cells to toxin relative to heterozygous cells” value ([3]; 15 h exposure, MTT) was “did not observe altered sensitivity”.

For tunicamycin, the “sensitivity of DJ-1 deficient cells to toxin relative to heterozygous cells” value ([3]; 15 h exposure, MTT) was “did not observe altered sensitivity”.

B1: C106A: DJ-1 cysteine-to-alanine mutant at cysteine 106 (protein, UniProt Q99497 1-189, looked up, variant C106A)
chain: MASKRALVILAKGAEEMETVIPVDVMRRAGIKVTVAGLAGKDPVQCSRDVVICPDASLEDAKKEGPYDVVVLPGGNLGAQNLSESAAVKEILKEQENRKGLIAAIAAGPTALLAHEIGFGSKVTTHPLAKDKMMNGGHYTYSENRVEKDGLILTSRGPGTSFEFALAIVEALNGKEVAAQVKAPLVLKD
With B1 the “suppression of heat-induced aggregation of CS (chaperone activity)” value [4] was “does not alter the basal activity” and the “viability of DJ-1 knockout cells in the presence of H2O2” value [5] was “robustly rescued”.

B2: C106A/C53A/C46A: triple mutant that harbors mutations at all three cysteines in DJ-1 (protein, UniProt Q99497 1-189, looked up, variant C106A C53A C46A)
chain: B1 chain with C46A, C53A
B2 was tested, and the “suppression of heat-induced aggregation of CS (chaperone activity)” value [4] was “loss of chaperone function” and the “viability of DJ-1 knockout cells in the presence of H2O2” value [5] was “failed to protect”.
